By logP is commonly meant a log measure of how a compound divides between an organic and an aqueous phase.

The values below come from article PMC2883612 (Journal of nuclear medicine : official publication, Society …, 2009).

Series [1] relates to TSPO. The settings on record: rat model of neurodegeneration; cited from earlier work.
Series [2] is described as follows: Pharmacologic effects and safety tests in human subjects after PET. The series is classed as in vivo.
Series [3] can be described thus: Plasma metabolite analysis and plasma input function. It counts as in vivo. The settings on record: human; for metabolites in plasma radioactivity: 30 min after injection; for plasma clearance time constant: monoexponential fitting from 20 to 60 min.
The conditions of series [4]: cited from earlier work.
The test system of series [5] is TSPO. The settings on record: in vivo; cited from earlier work.
In series [6] the target is TSPO (Homo sapiens, UniProt P30536). Kind of series: Brain PET with arterial input, compartmental modeling. The settings on record: 1-tissue model, mean ± SD.
Chain of TSPO (Homo sapiens, UniProt P30536) (P30536 whole entry): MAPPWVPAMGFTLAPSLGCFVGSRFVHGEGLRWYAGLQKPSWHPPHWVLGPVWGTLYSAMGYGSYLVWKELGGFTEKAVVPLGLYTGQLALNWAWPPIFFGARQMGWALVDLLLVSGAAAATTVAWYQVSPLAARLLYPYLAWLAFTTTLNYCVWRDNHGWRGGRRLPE

As to `CCN(CC)C(=O)Cc1c(-c2ccc(OC)cc2)nn2c(C)cc(C)nc12` [^11C-DPA-713, ^11C-N,N-diethyl-2-[2-(4-methoxyphenyl)-5,7-dimethyl-pyrazolo[1,5-a]pyrimidin-3-yl]-acetamide], the “specificity in discriminating between normal and lesioned brain, vs ^11C-R-PK11195” value with TSPO [1] is reported as “greater specificity”. For the same compound, in series [2] (healthy human subjects), the “blood tests before and after the scan” value is recorded as “no abnormalities or interval changes”; the “side effects after the PET scans” value is listed as “No side effects were reported”. Also, the pharmacologic effects entry in series [2] (healthy human subjects, intravenous bolus) is “No pharmacologic effects were noted”. Moreover, in series [2] (within 1 wk before and after injection), the “12-lead ECGs” value was “no abnormalities or interval changes”. Also, in series [3], the “metabolites in plasma radioactivity” value is recorded as 20% and the “plasma clearance time constant” value is given as 42 min. Besides, the logP in series [4] is listed as 2.4.

Take `CCC(C)N(C)C(=O)c1cc2ccccc2c(-c2ccccc2Cl)n1` (stereo not shown) [^11C-R-PK11195]: the “metabolites in plasma radioactivity” value in series [3] was found to be 40%. In addition, in series [3], the “plasma clearance time constant” value was found to be 37 min. The “blocking effect on ^11C-DPA-713 brain uptake” value in the series on TSPO [5] is recorded as “potent blockade of brain uptake”. The K1 value at TSPO [6] (Caudate) was 0.020 ± 0.012 (24.9); on TSPO [6] (Cerebellar cortex) it was 0.025 ± 0.016 (12.5); on TSPO [6] (Frontal) it was 0.023 ± 0.013 (14.6); on TSPO [6] (Pons), 0.019 ± 0.016 (23.1); at TSPO [6] (Putamen), 0.026 ± 0.015 (10.3); at TSPO [6] (Temporal), 0.016 ± 0.011 (22.0). The K1 value at TSPO [6] (Thalamus) was 0.025 ± 0.013 (12.0). The VT value at TSPO [6] (Caudate) was 0.25 ± 0.09 (23.1); on TSPO [6] (Cerebellar cortex), 0.32 ± 0.08 (11.9); at TSPO [6] (Frontal) it was 0.33 ± 0.10 (13.9); on TSPO [6] (Pons), 0.42 ± 0.13 (33.3); on TSPO [6] (Putamen), 0.34 ± 0.06 (9.5); on TSPO [6] (Temporal), 0.40 ± 0.08 (29.4). For the same compound, the VT value at TSPO [6] (Thalamus) is 0.42 ± 0.07 (11.9).
